# According to ChEMBL document CHEMBL1157539, “Thousands of chemical starting points for antimalarial lead identification” (Nature, 2010):
# Tested on: Plasmodium falciparum
# Assay: GSK_TCMDC: Inhibition of Plasmodium falciparum 3D7 in whole erythrocytes, using parasite LDH activity as an index of growth.
# Format: functional, organism-based
# Details: Plasmodium falciparum, 3D7
row,Structure (SMILES),XC50 [nM]
1,CCN1CCC(N(Cc2ccc(-c3ccc(C(F)(F)F)cc3)cc2)C(=O)Cn2c(CCc3cccc(F)c3F)cc(=O)c3ccccc32)C1 (stereo not given),1010
2,Cc1ccc(NC(=O)N2CCCN(CCCCCNC(=O)/C=C/c3ccc(Cl)c(Cl)c3)CC2)cc1,758
3,O=C(O)c1ccc2nc(-c3ccccn3)c(-c3ccccn3)nc2c1,217
4,COc1ccc2ncc(F)c([C@@H](O)CN3CCC(NCc4cc(C#N)c5c(c4)CCO5)CC3)c2n1,889
5,O=C(/C=C/c1ccc(Cl)c(Cl)c1)NCCCCCN1CCC(NC(=O)Nc2ccc(Cl)c(C(F)(F)F)c2)CC1,650
6,O=C(/C=C/c1ccc(Cl)c(Cl)c1)NC1CCC(CN2CCC(c3c[nH]c4ccccc34)C(O)C2)CC1 (stereo not given),719
7,Clc1ccc(Cl)c2[nH]c(CNCCCNc3nc4ccccc4[nH]3)cc12,163
8,c1cncc(Oc2ccc(Nc3ccnc4cc(-c5cccc(CN6CCCCC6)c5)ccc34)cc2)c1,124
9,CS(=O)(=O)N1CC2(CCN(CCC(NC(=O)/C=C/c3ccccc3)c3ccc(Cl)c(Cl)c3)CC2)c2ccccc21 (stereo not given),782
10,CCCCCC(C)C(C)c1cc(O)c2c(c1)OC(C)(C)CC2(O)c1ccnn1C (stereo not given),964
11,O=c1cc(NCCCNCc2[nH]c3cc(Cl)ccc3c2Cl)[nH]c2ccccc12,910
12,CC(=O)/N=C1\N=C(NC(C)=O)NC(C)(C)N1OCCCOc1ccc(Cl)c(Cl)c1,8.33
13,CCc1cc(Br)c(CNCCCNc2cc(=O)c3ccccc3[nH]2)s1,949
14,O=C(c1ccc(Cl)c(Cl)c1)N1CCc2c([nH]c3ccccc23)C1CN1CCCC1 (stereo not given),825
15,Nc1nc(N)c2cc(NC(=O)c3ccc(Cl)c(Cl)c3)ccc2n1,146
16,Fc1cccc(COc2ccc(Nc3ncnc4cc(/C=C/[C@@H]5CCCN5)sc34)cc2Cl)c1,592
17,COc1ccc(S(=O)(=O)N(CC(=O)NN=C(C)c2cccs2)c2cc(C)cc(C)c2)cc1OC,141
18,COc1cc(CN2CCC(C(=O)Nc3ccc(-c4cccc(C)c4)cc3)CC2)ccc1O,1120
19,N=c1c2nc(-c3c(F)cccc3Cl)[nH]c(=O)c2[nH]c(=O)n1-c1ccccc1,678
20,SC(=Nc1ccc(Cl)c(Cl)c1)NN=Cc1ccccn1,768
21,COc1ccc(CC(=O)NC(CCN2CCC3(CCc4ccccc43)CC2)c2ccc(Cl)c(Cl)c2)cc1 (stereo not given),525
22,Cc1ccc(C)c(S(=O)(=O)NCC2CCN(Cc3ccc(O)cc3)CC2)c1,978
23,O=C(Nc1cccc(CN2CCN(Cc3ccc(O)cc3)CC2)c1)c1cccc(C(F)(F)F)c1,1210
24,CC(C)Oc1ccc(CCCON2C(=N)N=C(N)NC2(C)C)cc1,3.2
25,COc1cc(CNC[C@@H](O)[C@H](Cc2ccccc2)NC(=O)c2cc(C3CCCC3)cc(N3CCCS3(=O)=O)c2)cc(OC)c1,1240

row,Structure (SMILES),XC50 [nM]
1,CCOC(=O)c1c(C)noc1Nc1ccc(OC)cc1,672
2,CC(CCCCC(=O)Nc1ccc(CC(C)NCCc2cccc(Cl)c2)cc1)NCCc1cccc(Cl)c1 (stereo not given),1010
3,COc1cccc(CN2CCCN(Cc3cccc(NC(=O)c4cc5ccccc5s4)c3)CC2)c1,1010
4,N=C(N)NC(=O)Nc1cc(Cl)c(Cl)c(Cl)c1,588
5,CN1CCN(c2ccnc3ccc(NC(=O)Nc4ccc(Cl)c(Cl)c4)cc23)CC1,876
6,CS(=O)(=O)CCNCc1cccc(-c2ccc3c(Nc4ccc(Oc5ccccc5)cc4)ccnc3c2)c1,691
7,COc1ccc(CN2CCC(CNCC(c3ccccc3)c3ccccc3)CC2)cc1,228
8,Clc1ccc(OCCC2CCN(CCCCCCN3CCCCC3)CC2)cc1Cl,1140
9,CCOC(=O)c1ccc(NC(=O)Nc2ccc(-c3ccc(-c4nc5cccc(C)c5[nH]4)s3)cc2)cc1,199
10,N#CCCN1CCN(Cc2cccc(-c3ccc(-c4nc5cc(F)ccc5[nH]4)cc3)c2)CC1,599
11,Oc1cc2c(cc1CN1CCN(Cc3cccs3)CC1)CCC2,839
12,O=C1CCCN1CCCNCc1cccc(-c2ccc(-c3nc4ccccc4[nH]3)s2)c1,859
13,Cc1cccc2c3c([nH]c12)C1(CCN(CCc2ccccc2)CC1)NC(C(=O)NCc1ccccc1)C3 (stereo not given),1000
14,FC(F)(F)Oc1ccc(Nc2cc(-c3ccncc3)nc(-c3cccnc3)n2)cc1,672
15,O=C(Nc1cccc(-c2nn3ccccc3c2-c2ccnc(Nc3ccccc3)n2)c1)c1c(F)cccc1F,715
16,CC(C)N1CCC(NCc2ccc(-c3ccc(Cl)cc3)cc2)CC1,646
17,CCOC(=O)C(Oc1ccc2ccccc2c1)C(=O)OCC,756
18,CC(=O)c1cccc(S(=O)(=O)NCCCNc2nc3cc(C)cc(C)c3cc2C#N)c1,914
19,c1ccc2c(NCCCCCCNc3c4c(nc5ccccc35)CCCC4)c3c(nc2c1)CCCC3,196
20,CCCCN1CCN(Cc2cccc(NC(=O)c3ccc(Cl)c(Cl)c3)c2)CC1,1160
21,CNC(=O)c1ccc2nc(C3CC3)n(CC3CCN(S(=O)(=O)c4cccc(Cl)c4)CC3)c2c1,651
22,Cc1cc(NCc2ccccc2)nc2cc(O)ccc12,784
23,CC(C)n1c(C2CCN(CC3CCN(C(=O)/C=C/c4ccc(Cl)c(Cl)c4)CC3)CC2)nc2ccccc21,1030
24,Cc1cc2nc(-c3ccc(C(=O)NC4CCN(Cc5ccccc5)CC4)cc3)[nH]c2cc1C,743
25,Oc1ccc(CCCc2cc(Oc3c(I)cc(CCc4ncc[nH]4)cc3I)ccc2O)cc1,873

row,Structure (SMILES),XC50 [nM]
1,O=C(NCC1Cc2cc(Oc3ccccc3)ccc2O1)c1ccc([N+](=O)[O-])o1 (stereo not given),917
2,CC(C)n1cc(CN2CCCC(C(=O)Nc3cccc(-c4cc5ccccc5[nH]4)c3)C2)cn1 (stereo not given),999
3,COc1ccc(Cn2c(Nc3cccc(C(F)(F)F)c3)nc3ccc(C(=O)NCCN4CCCC4)cc32)cc1Cl,753
4,CC(=NNC(S)=NC(C)(C)C)c1ccccn1,158
5,O=C(NC1CCN(Cc2ccccc2O)C1)c1ccc(-c2ccccc2)cc1 (stereo not given),838
6,Cc1ccc2[nH]c(-c3cc(-c4ccc(OCc5ccccc5)cc4)cnc3N)nc2c1,1680
7,O=C(O)c1ccc(NC(=O)C2CC(=O)N(Cc3ccc(Cl)cc3)C(=Nc3ccc(Cl)cc3)S2)cc1 (stereo not given),530
8,CCNC(=O)CCc1cccc(Br)c1,533
9,Cc1cc(N(C)C)nc(Nc2ccc(NC(=O)C(C)Oc3ccccc3)cc2)n1 (stereo not given),952
10,CC[C@H]1CN2CC[C@@H]1C[C@H]2[C@H](O)c1cc(N2CCC(CO)CC2)nc2ccc(OC)cc12,162
11,COc1ccc(CCCCN2C(=O)C(c3ccccc3)(c3ccccc3)N=C2N)cc1,858
12,COc1ccc(CN2CCC(CNCCc3ccccc3Oc3ccccc3)CC2)cc1,1100
13,Cc1cc(N2CC=CCC2)nc(NC(=N)Nc2ccc(Br)cc2)n1,690
14,CCN(CC)CCCC(C)Nc1ccnc2cc(C#N)ccc12 (stereo not given),139
15,CN1CCN(Cc2cc(NC(=O)c3ccc(-c4ccc(Cl)cc4Cl)cc3)ccc2-c2ccccc2)CC1,973
16,CCOc1ccc2c(=NN=Cc3cccc(F)c3)cc(C)[nH]c2c1,714
17,CC(C)(C)c1cc([N+](=O)[O-])cc(C(=O)Nc2ccccc2C(F)(F)F)c1O,652
18,COc1ccc(CNC2CCN(C)CC2)cc1-c1ccc(S(=O)(=O)NCc2ccccc2)c(F)c1,800
19,O=C(C=Cc1ccc(Cl)c(Cl)c1)NCCCCCN1CCCC(CCCNC(=O)c2sc3ccccc3c2Cl)C1 (stereo not given),1030
20,C(=NNc1nc2ccccc2[nH]1)c1ccccc1OCc1ccccc1,256
21,N=C1N=C(N)NC2(CCCCC2)N1OCC1CCCCC1,155
22,CC(C)N1CCC(NC(=O)N2CCCN(c3ncnc4cc(-c5ccc(Cl)cc5)sc34)CC2)CC1,1940
23,O=C(/C=C/c1ccc(Cl)c(Cl)c1)N1CCN(C(=O)Nc2ccc(C(F)(F)F)cc2)CC1,666
24,CCN(CC)CC(O)c1cc(-c2ccc(C)cc2)nc2c(C)cc(C)cc12 (stereo not given),171
25,CC(C)Cn1c(N)cc(=O)n(C)c1=O,978

row,Structure (SMILES),XC50 [nM]
1,CC1CCCCN1CCCNC(=O)c1cccc(-c2cc3cc(Cl)c(Cl)cc3[nH]2)c1 (stereo not given),881
2,CC(=NO)C1=C(O)C(c2ccccc2)N(c2ccccc2)C1=O (stereo not given),701
3,CCOc1cccc(C(=O)Nc2ccc(-c3nc4ccccc4[nH]3)cc2)c1,1010
4,CS(=O)(=O)c1ccc2[nH]c(-c3cc(-c4cccc(F)c4)cnc3N)nc2c1,1090
5,Fc1cccc(Cl)c1-c1nc(NCCC(c2ccccc2)c2ccccc2)no1,546
6,Cn1c(-c2ccccc2)cc2c3c(=O)cc(C(F)(F)F)[nH]c3ccc21,849
7,CC(C)Cc1cn(-c2nc(-c3nc4ccccc4[nH]3)cs2)c2ccncc12,90
8,CCCNc1ccc2nccc(CCN3CCC(NCc4ccc5c(c4)NC(=O)CS5)CC3)c2n1,580
9,OCCn1c(CNCCCNc2nc3ccccc3[nH]2)cc2c(Cl)cc(Cl)cc21,806
10,CC[C@H](C)CNC(=O)c1cncc(-c2ccc(CN3CCC(N4CCCC4)CC3)cc2)c1,968
11,O=C(Nc1cccc(CN2CCN(Cc3cccc(O)c3)CC2)c1)c1ccc(Cl)c(Cl)c1,411
12,Cn1c2c(c3ccccc31)CN(CCC1(c3ccc(Cl)c(Cl)c3)CN(C(=O)c3ccccc3)CCO1)CC2 (stereo not given),311
13,CCc1nonc1NC(=O)c1oc2c(C)c(C)ccc2c1C,879
14,Cn1c(Sc2ncnc3sccc23)nc2ccccc21,191
15,CCOc1ccc(C(=O)Nc2cc(Br)c3c(c2)CNCC3)cc1C(F)(F)F,939
16,COc1ccc(S(=O)(=O)NCCCC2CCN(CCCCCNC(=O)C=Cc3ccc(Cl)c(Cl)c3)CC2)cc1,1040
17,c1ccc(-c2n[nH]cc2Nc2ccnc3ccccc23)nc1,819
18,c1cc(CN2CCN(CCN3CCOCC3)CC2)cc(-c2ccc(-c3nc4ccccc4[nH]3)cc2)c1,131
19,CCN(CCNC(=O)Nc1cc(C(F)(F)F)cc(C(F)(F)F)c1)c1cccc(C)c1,804
20,O=C(/C=C/c1ccc(Cl)cc1)NCCCCCN1CCC(C(=O)Nc2ccc(Cl)cc2)CC1,832
21,C[C@H](NC(=O)c1cc(-c2ccc(C(C)(C)C)cc2)no1)C(=O)O.C[C@H](NC(=O)c1conc1-c1ccc(C(C)(C)C)cc1)C(=O)O,140
22,CN1CC=C(c2c[nH]c3ccc(C(=O)c4nccs4)cc23)CC1,242
23,O=C(/C=C/c1ccc(Cl)cc1)Nc1ccc2nc(CN3CCCC3)ccc2c1,82.1
24,Cc1cccc2nc(-c3cccc(-c4ccc(NC(=O)CN5CCN(C)CC5)cc4)c3)[nH]c12,562
25,CCCN1CCC(NCc2cn(C)nc2-c2ccc(Oc3ccccc3)cc2)CC1,1440
